Tests used:
[1] = test system: CD44 expressing population (cancer stem cells) of DU145 cells; test: Flow cytometry analysis (anti-CD44-PE / anti-CD24-FITC staining) of DU145 prostate cancer cells; assay type: cell-based; details: IC25 drug conc.; for effect on CD44 expressing cell population of DU145 cells (quadrant plot): 48 hrs exposure; for activity on CD44 expressing cells (cancer stem cells population) of DU145 cancer cells compared to standard therapeutic drug Cisplatin: 48 hrs, bar graph FIG. 10, versus Cisplatin
Procedure: (§1) DU145 is a moderately metastatic prostate cancer cell line. Flow cytometry study was conducted to observe the effect of Ethyl-5-methyl-4-(phenylamino) thieno[2,3-d]pyrimidine-6-carboxylate and Ethyl-5-methyl-4-(4-methylphenyl)amino thieno[2,3-d]pyrimidine-6-carboxylate on DU145 cells compared to standard therapeutic drug Cisplatin.
(§2) 1. […] In the quadrant plot upper left region (Q2-UL) only CD44 expressing cells were observed. In the quadrant plot upper right region (Q2-UR) CD44 and CD24 expressing cells were observed. In the quadrant plot lower left region (Q2-LL) […]. In the quadrant plot lower right region (Q2-LR) […].

[2] = test system: CD44 expressing population (cancer stem cells) of MDA MB231 cells; test: Flow cytometry analysis (anti-CD44-PE / anti-CD24-FITC staining) of MDA MB231 breast cancer cells; assay type: cell-based; details: IC25 drug conc.; for effect on CD44 expressing cell population of MDA MB231 cells (quadrant plot): 48 hrs exposure; for activity on CD44 expressing cells (cancer stem cells population) of MDA MB231 cancer cells compared to standard therapeutic drug Cisplatin: 48 hrs, bar graph FIG. 5, versus Cisplatin
Procedure: as §1, with “MDA MB231” for “DU145”, “highly” for “moderately”, “breast” for “prostate”
as §2

Structure (SMILES)	effect on CD44 expressing cell population of DU145 cells (quadrant plot) [1]	activity on CD44 expressing cells (cancer stem cells population) of DU145 cancer cells compared to standard therapeutic drug Cisplatin [1]	effect on CD44 expressing cell population of MDA MB231 cells (quadrant plot) [2]	activity on CD44 expressing cells (cancer stem cells population) of MDA MB231 cancer cells compared to standard therapeutic drug Cisplatin [2]
CCOC(=O)c1sc2ncnc(Nc3ccc(C)cc3)c2c1C [Ethyl-5-methyl-4-(4-methylphenyl)amino thieno[2,3-d]pyrimidine-6-carboxylate]	marked effect	much better and enhanced activity	marked effect	much better and enhanced activity
N.N.[Cl][Pt][Cl] [Cisplatin, reference compound]	did not have much effect		did not have much effect	
CCOC(=O)c1sc2ncnc(Nc3ccccc3)c2c1C [Ethyl-5-methyl-4-(phenylamino) thieno[2,3-d]pyrimidine-6-carboxylate]	marked effect	much better and enhanced activity	marked effect	much better and enhanced activity
